Source: patent US20040116436A1, “Treatment of dementia and parkinson's disease” (priority 2002, published 2004)
Like-named read-outs stand apart in the source and are kept apart here.

Columns and labels:
[1] = test system: dopaminergic neurons in the substantia nigra
[2] = test system: dopaminergic neurons in the ventral tegmental area; conditions: MPTP mice; brimonidine 3 mg/kg/day
[3] = target: alpha 1A receptor (Homo sapiens, UniProt P35348); conditions: RSAT assay; alpha 2 subtypes versus alpha 1A
[4] = From the text: 30 C57B1/B6 type mice (8-12 weeks old) are allowed to acclimate for 12-14 days before experimental use.
[5] = target: alpha 2B receptor (Homo sapiens, UniProt P18089); assay: cell-based
From the text: (§1) In contrast, a method for measuring alpha receptor agonist selectivity comprises the RSAT (Receptor Selection and Amplification Technology) assay as reported in Messier et al., High Throughput Assays Of Cloned Adrenergic, Muscarinic, Neurokinin And Neurotrophin Receptors In Living Mammalian Cells, Pharmacol. Toxicol. 76:308-11 (1995) and has been adapted for use with alpha 2 receptors. This publication is incorporated by reference herein. The assay measures a receptor-mediated loss of contact inhibition that results in selective proliferation of receptor-containing cells in a mixed population of confluent cells. The increase in cell number is assessed with an appropriate transfected marker gene such as b-galactosidase, the activity of which can be easily measured in a 96-well format. Receptors that activate the G protein, Gq, elicit this response. Alpha2 receptors, which normally couple to Gi, activate the RSAT response when coexpressed with a hybrid Gq protein that has a Gi receptor recognition domain, called Gq/i5^2. See Conklin et al., Substitution Of Three Amino Acids Switches Receptor Specificity Of Gqa To That Of Gia, Nature 363:274-6. (1993) This reference is hereby incorporated by reference herein.
(§2) The data presented below was collected using the RSAT assay described above.
(§3) Efficacy of a given receptor or receptor subtype in accordance with the present invention is determined using the RSAT assay procedure described above.

[6] = target: alpha 2C receptor (Homo sapiens, UniProt P18825); assay: cell-based
From the text: as §1, §2, §3

[7] = in vivo, ip

| SMILES | neuron loss in the substantia nigra versus MPTP-treated animals ([1]; MPTP mice, brimonidine 3 mg/kg/day) | Average Neuron Count (statistical error) ([1]; substantia nigra, TH-labeled neurons, 55-60 days post MPTP 40 mg/kg sc, brimonidine 3 mg/kg/day sc mini-pump 14 days) | reduction of MPTP-induced neuron loss in the Ventral Tegmental area [2] | greater activity at each alpha 2 receptor subtype than at the alpha 1A receptor [3] | Open Field activity versus vehicle + MPTP group ([4]; 10 and 30 days post MPTP, brimonidine 3 mg/kg/day) | forelimb extension impairment, tail hang test ([4]; during the period that the compound is administered) | forelimb extension impairment, tail hang test ([4]; post-dosing (after 14 days of compound administration)) | EC50 [5] [µM] | EC50 [6] [µM] | concentration at which sedative effect first becomes noticeable [7] |
| --- | --- | --- | --- | --- | --- | --- | --- | --- | --- | --- |
| Brc1c(NC2=NCCN2)ccc2nccnc12 [Brimonidine, brimonidine] | significantly less neuron loss | 32 (±1) | about 10% | at least 5.5 fold | no significant difference between this group and the vehicle group | does not reduce this impairment | does tend to reduce the impairment | – | – | – |
| Cc1cccc([C@H](C)c2cnc[nH]2)c1C [Dexmedetomidine, dexmedetomidine] | – | – | – | – | – | – | – | 0.002 | 0.001 | – |
| Clc1ccc2nsnc2c1NC1=NCCN1 [Tizanidine, tizanidine] | – | – | – | – | – | – | – | 0.127 | 1.69 | about 100 micrograms/kg |
